Reference: paper PMC10230575 (Bioorganic & medicinal chemistry letters, 2022)
Substitutions are numbered along the chain they refer to.

Target: T1, wild-type human (WT) Slack (Homo sapiens, UniProt Q5JUK3)
T1 sequence (Q5JUK3 1-1235 isoform Q5JUK3-3): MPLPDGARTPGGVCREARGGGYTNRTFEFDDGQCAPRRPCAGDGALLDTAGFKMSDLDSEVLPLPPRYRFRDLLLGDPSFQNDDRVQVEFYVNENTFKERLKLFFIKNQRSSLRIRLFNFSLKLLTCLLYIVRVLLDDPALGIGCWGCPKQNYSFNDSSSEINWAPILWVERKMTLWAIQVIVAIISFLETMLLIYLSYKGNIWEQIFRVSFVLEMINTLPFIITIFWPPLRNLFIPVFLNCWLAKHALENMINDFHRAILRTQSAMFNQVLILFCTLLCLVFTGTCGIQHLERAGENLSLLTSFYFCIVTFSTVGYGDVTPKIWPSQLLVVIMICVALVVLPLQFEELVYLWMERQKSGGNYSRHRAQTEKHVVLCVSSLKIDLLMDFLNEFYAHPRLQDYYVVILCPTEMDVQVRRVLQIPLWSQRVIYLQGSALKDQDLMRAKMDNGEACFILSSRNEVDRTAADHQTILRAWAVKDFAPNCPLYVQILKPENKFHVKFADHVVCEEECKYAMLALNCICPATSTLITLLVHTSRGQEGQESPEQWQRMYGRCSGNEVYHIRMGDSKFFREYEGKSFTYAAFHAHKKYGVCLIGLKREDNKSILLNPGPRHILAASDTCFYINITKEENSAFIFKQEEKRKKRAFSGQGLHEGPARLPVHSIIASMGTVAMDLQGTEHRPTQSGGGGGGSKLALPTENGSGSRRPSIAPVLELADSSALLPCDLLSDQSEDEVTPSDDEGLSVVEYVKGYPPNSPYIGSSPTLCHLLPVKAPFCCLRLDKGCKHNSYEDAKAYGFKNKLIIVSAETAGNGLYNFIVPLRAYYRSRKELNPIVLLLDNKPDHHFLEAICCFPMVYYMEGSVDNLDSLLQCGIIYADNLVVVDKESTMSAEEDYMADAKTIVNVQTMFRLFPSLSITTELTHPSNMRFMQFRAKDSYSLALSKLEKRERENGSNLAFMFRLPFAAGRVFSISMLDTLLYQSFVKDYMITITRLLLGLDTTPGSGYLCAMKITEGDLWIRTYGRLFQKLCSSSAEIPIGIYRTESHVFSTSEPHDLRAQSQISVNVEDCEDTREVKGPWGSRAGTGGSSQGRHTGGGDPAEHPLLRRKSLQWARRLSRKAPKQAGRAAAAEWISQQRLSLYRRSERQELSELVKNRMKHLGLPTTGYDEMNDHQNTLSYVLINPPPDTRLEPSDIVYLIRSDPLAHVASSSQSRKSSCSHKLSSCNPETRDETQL
Assay: Tl+ flux assay in HEK-293 cells stably expressing WT Slack
Type: cell-based
Conditions: Table 1; CRC, Tl+ flux, HEK-293 WT Slack; Mode Inh

| Compound | IC50 / EC50 (IC50, inhibitors) |
| --- | --- |
| COc1ccc(Cl)cc1NC(=O)CN1CCN(S(=O)(=O)N2CCC(C)CC2)CC1 [Compound 4] | 2.4 µM |

Same assay, conditions: Table 3; no mode assigned

| Compound | IC50 / EC50 (result in words) |
| --- | --- |
| COc1ccc(Cl)cc1NC(=O)CN1CCN(S(=O)(=O)N2CCN(S(=O)(=O)c3ccc(C)cc3)CC2)CC1 [Compound 47] | inactive |
| COc1ccc(Cl)cc1NC(=O)CN1CCN(S(=O)(=O)N2CCN(S(=O)(=O)N3CCOCC3)CC2)CC1 [Compound 44] | inactive |
| COc1ccc(Cl)cc1NC(=O)CN1CCN(S(=O)(=O)N2CCN(S(=O)(=O)N3CCCCC3)CC2)CC1 [Compound 43] | inactive |
| COc1ccc(Cl)cc1NC(=O)CN1CCN(S(=O)(=O)N2CCN(S(=O)(=O)C3CCCCC3)CC2)CC1 [Compound 45] | inactive |

Same assay, conditions: running text and footnotes; WT Slack Tl+ flux

| Compound | Slack activity profile in words |
| --- | --- |
| COc1ccc(Cl)cc1NC(=O)CN1CCN(S(=O)(=O)N2CCN(C(=O)N3CCCCC3)CC2)CC1 [Compound 51] | weak activators |
| Cc1ccccc1NC(=O)CN1CCN(S(=O)(=O)N2CCC(C)CC2)CC1 [Compound 18] | mixed profile |
| COc1ccc(Cl)cc1NC(=O)CN1CCN(S(=O)(=O)N2CCC(C)CC2)C[C@H]1C [Compound 87] | equipotent to hit compound 4 |
| COc1ccc(Cl)cc1NC(=O)CN(C)CCN(C)S(=O)(=O)N1CCC(C)CC1 [Compound 81] | retained inhibitory activity but exhibited reduced potency |
| COc1ccc(Cl)cc1NC(=O)CN1CCN(S(=O)(=O)N2CCN(C(=O)N3CCC(C(C)C)CC3)CC2)CC1 [Compound 53] | mixed profile |
| CC1CCN(S(=O)(=O)N2CCN(CC(=O)Nc3ccccc3Cl)CC2)CC1 [Compound 15] | mixed profile |
| Cc1cccc(NC(=O)CN2CCN(S(=O)(=O)N3CCC(C)CC3)CC2)c1 [Compound 19] | mixed profile |
| COc1ccc(Cl)cc1NC(=O)CN1CCN(S(=O)(=O)N2CCC(C)CC2)C[C@@H]1C [Compound 71] | well tolerated |
| CC1CCN(S(=O)(=O)N2CCN(CC(=O)Nc3cc(Cl)ccc3F)CC2)CC1 [Compound 29] | not effective |
| COc1ccc(Cl)cc1NC(=O)CN1CCN(S(=O)(=O)N2CCC(C)CC2)[C@H](C)C1 [Compound 86] | significantly reduced potency |
| COc1ccc(Cl)cc1NC(=O)CN1CCN(S(=O)(=O)N2CCC(C)CC2)[C@@H](C)C1 [Compound 68] | significantly reduced potency |
| COc1ccc(Cl)cc1NC(=O)N1CC2(CCN(S(=O)(=O)N3CCC(C)CC3)CC2)C1 [Compound 88] | weak activators |
| COc1ccc(Cl)cc1NC(=O)N1C[C@@H]2CN(S(=O)(=O)N3CCC(C)CC3)C[C@@H]2C1 [Compound 91] | devoid of activity |
| CCCC1CCN(C(=O)N2CCN(S(=O)(=O)N3CCN(CC(=O)Nc4cc(Cl)ccc4OC)CC3)CC2)CC1 [Compound 52] | weak inhibitor |
| COc1ccc(Cl)cc1NC(=O)N1CC2(C1)CN(S(=O)(=O)N1CCC(C)CC1)C2 [Compound 90] | weak inhibitor |
| COc1ccccc1NC(=O)CN1CCN(S(=O)(=O)N2CCC(C)CC2)CC1 [Compound 21] | maintained the inhibitory profile |
| Cc1ccc(Cl)cc1NC(=O)CN1CCN(S(=O)(=O)N2CCC(C)CC2)CC1 [Compound 31] | not effective |
| CC1CCN(S(=O)(=O)N2CCN(CC(=O)Nc3cc(Cl)ccc3Cl)CC2)CC1 [Compound 30] | not effective |
| COc1cccc(NC(=O)CN2CCN(S(=O)(=O)N3CCC(C)CC3)CC2)c1 [Compound 22] | mixed profile |
| COc1ccc(Cl)cc1NC(=O)N1CCCN(S(=O)(=O)N2CCC(C)CC2)CC1 [Compound 92] | moderately potent |
| COc1ccc(Cl)cc1NC(=O)CN1CCN(S(=O)(=O)N2CCN(C(=O)N3CCCCCC3)CC2)CC1 [Compound 55] | weak activators |
| COc1ccc(Cl)cc1NC(=O)CN1CCN(S(=O)(=O)N2CCN(S(=O)(=O)N3CCC(F)(F)C3)CC2)CC1 [Compound 50] | weak activators |

Target: Maxi-K (Slo1 α1/β3) (Homo sapiens, UniProt Q12791)
Assay: Tl+ flux assay in HEK-293 cells expressing Maxi-K
Type: cell-based
Conditions: 30 µM test compound, % of maximum response for paxilline

Maxi-K (Slo1 α1/β3), sequence (Q12791 whole entry, species assumed): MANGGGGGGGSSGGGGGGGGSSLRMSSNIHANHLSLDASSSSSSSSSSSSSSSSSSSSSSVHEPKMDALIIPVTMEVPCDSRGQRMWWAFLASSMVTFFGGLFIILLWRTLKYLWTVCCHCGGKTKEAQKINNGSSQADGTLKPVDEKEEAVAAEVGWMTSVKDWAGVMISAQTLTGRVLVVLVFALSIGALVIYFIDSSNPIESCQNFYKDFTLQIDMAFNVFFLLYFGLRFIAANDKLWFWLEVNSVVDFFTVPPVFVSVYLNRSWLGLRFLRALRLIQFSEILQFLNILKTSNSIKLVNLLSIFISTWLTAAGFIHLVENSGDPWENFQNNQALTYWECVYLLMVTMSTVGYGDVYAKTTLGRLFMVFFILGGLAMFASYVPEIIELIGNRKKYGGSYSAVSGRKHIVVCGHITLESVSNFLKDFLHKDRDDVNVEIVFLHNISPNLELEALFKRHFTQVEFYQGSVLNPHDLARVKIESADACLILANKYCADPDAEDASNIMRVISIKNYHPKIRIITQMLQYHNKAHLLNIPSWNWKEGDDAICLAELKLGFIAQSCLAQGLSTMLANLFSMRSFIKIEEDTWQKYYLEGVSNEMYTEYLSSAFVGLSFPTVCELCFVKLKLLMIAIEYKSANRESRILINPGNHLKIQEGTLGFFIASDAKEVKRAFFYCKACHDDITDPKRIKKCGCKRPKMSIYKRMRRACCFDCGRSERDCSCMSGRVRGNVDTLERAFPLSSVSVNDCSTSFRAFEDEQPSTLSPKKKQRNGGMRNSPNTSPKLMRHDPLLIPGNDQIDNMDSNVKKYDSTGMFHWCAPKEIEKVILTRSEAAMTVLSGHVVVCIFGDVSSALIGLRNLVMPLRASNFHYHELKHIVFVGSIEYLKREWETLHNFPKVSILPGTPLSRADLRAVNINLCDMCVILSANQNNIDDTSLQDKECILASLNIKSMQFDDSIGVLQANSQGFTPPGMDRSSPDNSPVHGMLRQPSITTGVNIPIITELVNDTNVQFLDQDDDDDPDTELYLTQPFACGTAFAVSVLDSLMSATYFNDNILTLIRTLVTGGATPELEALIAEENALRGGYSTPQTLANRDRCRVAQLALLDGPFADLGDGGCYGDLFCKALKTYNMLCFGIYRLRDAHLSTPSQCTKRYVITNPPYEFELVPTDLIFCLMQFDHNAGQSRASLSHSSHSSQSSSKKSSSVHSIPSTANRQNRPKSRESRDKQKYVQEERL
Maxi-K (Slo1 α1/β3), sequence (Q9NPA1 whole entry partner, species assumed): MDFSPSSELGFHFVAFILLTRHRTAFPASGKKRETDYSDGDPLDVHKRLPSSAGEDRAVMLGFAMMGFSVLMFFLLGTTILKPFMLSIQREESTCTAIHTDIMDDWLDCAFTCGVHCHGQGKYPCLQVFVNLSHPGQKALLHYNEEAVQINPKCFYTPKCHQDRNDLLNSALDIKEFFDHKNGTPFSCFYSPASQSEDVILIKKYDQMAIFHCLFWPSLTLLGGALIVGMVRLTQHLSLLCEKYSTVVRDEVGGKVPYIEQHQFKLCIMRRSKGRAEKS

| Compound | Maxi-K (Slo1 α1/β3) Efficacy |
| --- | --- |
| COc1ccc(Cl)cc1NC(=O)CN1CCN(S(=O)(=O)N2CCC(C)CC2)CC1 [Compound 4] | inactive |
| COc1ccc(Cl)cc1NC(=O)[C@H](C)N1CCN(S(=O)(=O)N2CCC(C(F)(F)F)CC2)CC1 [Compound 61] | inactive |

Same assay, conditions: CRC, Tl+ flux, HEK-293 expressing Maxi-K

| Compound | Maxi-K (Slo1 α1/β3) IC50 |
| --- | --- |
| COc1ccc(Cl)cc1NC(=O)CN1CCN(S(=O)(=O)N2CCC(C)CC2)CC1 [Compound 4] | inactive |
| COc1ccc(Cl)cc1NC(=O)[C@H](C)N1CCN(S(=O)(=O)N2CCC(C(F)(F)F)CC2)CC1 [Compound 61] | inactive |

Same assay, conditions: Tl+ flux

| Compound | Maxi-K inhibition in words |
| --- | --- |
| COc1ccc(Cl)cc1NC(=O)CN1CCN(S(=O)(=O)N2CCC(C)CC2)C[C@H]1C [Compound 87] | weak inhibition |
| COc1ccc(Cl)cc1NC(=O)[C@H](C)N1CCN(S(=O)(=O)N2CCC(C(F)(F)F)CC2)CC1 [Compound 61] | inactive |
| COc1ccc(C(F)(F)F)cc1NC(=O)CN1CCN(S(=O)(=O)N2CCC(C)CC2)CC1 [Compound 27] | weak inhibition |

Test system: human wild-type (WT) Slack channels
Assay: not given
Conditions: whole-cell patch clamp, HEK-293, human WT Slack; cited from earlier work

| Compound | IC50 |
| --- | --- |
| Cc1cccc(CC(=O)Nc2cnn(-c3cccc(C(=O)NCc4ccccc4-n4cncn4)c3)c2)c1 [Compound 1] | 3.2 µM |

Test system: mouse model of Kcnt1 GOF
Assay: not given
Conditions: orally available; cited from earlier work

| Compound | EEG phenotype |
| --- | --- |
| C[C@H](NC(=O)c1cc(C(F)(F)F)nn1C)c1nc(-c2ccnc(C(F)(F)F)c2)no1 [Compound 3] | normalizes the EEG phenotype |

Test system: cortical neuronal culture
Assay: not given
Conditions: overexcited, spontaneously firing cortical neuronal culture; cited from earlier work

| Compound | firing rate |
| --- | --- |
| COc1ccc(Cl)cc1NC(=O)CN1CCN(S(=O)(=O)N2CCC(C)CC2)CC1 [Compound 4] | decreased the firing rate |

Target: T2, A934T Slack (Homo sapiens, UniProt Q5JUK3, A915T)
T2 sequence (Q5JUK3 1-1235 isoform Q5JUK3-3 A934T): T1 sequence (Q5JUK3 1-1235 isoform Q5JUK3-3) with A934T
Assay: Tl+ flux assay in HEK-293 cells expressing A934T Slack
Conditions: Table 6; 30 µM test compound, % of maximum response for VU0606170

| Compound | A934T Efficacy |
| --- | --- |
| COc1ccc(F)cc1NC(=O)CN1CCN(S(=O)(=O)N2CCC(C)CC2)CC1 [Compound 24] | 100% |
